Some test systems named below: DLD-1 colon; HCT-15 colon; SK-MEL-5 melanoma; SN12C renal; SK-OV-3 ovarian; NCI-H460 lung; RPMI-8226 leukemia; SNB-75 CNS; SF-268 CNS; DMS 114 small cell lung; NCI-H522 lung; SK-MEL-28 melanoma; HOP-62 NSCLC; SF-295 CNS; OVCAR-4 ovarian; UACC-62 melanoma; OVCAR-8 ovarian; SW-620 colon; IGROV1 ovarian; K-562 leukemia.
Assay in all cases: inhibition of tumour cell growth, NCI panel, 48 h

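Dose response: 5 concentrations. Exposure: 48 h. Format: 96-well plates. Endpoint: linear interpolation; highest concentration if not reached. At the TGI there is no net growth.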

As for `CC(C)[C@](O)(C(=O)OCC1CC[N+]2([O-])CC[C@@H](O)C12)[C@H](C)O` (stereo partly specified), the TGI in the experiment on DLD-1 colon was above 375 µM; with HCT-15 colon, above 375 µM; with SK-MEL-5 melanoma, above 375 µM; in the experiment with SN12C renal, above 375 µM; in the experiment on SK-OV-3 ovarian, above 375 µM; in the experiment with NCI-H460 lung, above 159 µM. Also, the TGI with RPMI-8226 leukemia was above 375 µM; with SNB-75 CNS, above 161 µM; in the experiment on SF-268 CNS it was above 375 µM; in the experiment on DMS 114 small cell lung, above 375 µM; with NCI-H522 lung, above 375 µM; in the experiment on SK-MEL-28 melanoma, above 375 µM. For the same molecule, the TGI in the experiment on HOP-62 NSCLC, in the experiment on SF-295 CNS, in the experiment on OVCAR-4 ovarian, with UACC-62 melanoma, with OVCAR-8 ovarian and in the experiment on SW-620 colon was above 375 µM in each case. Further, the TGI in the experiment with IGROV1 ovarian and in the experiment with K-562 leukemia was above 375 µM each time.
Take `CCO[C@]12C[C@H](OC)[C@@]3(O)CC(C1[C@H]3O)C13C4C2[C@H](OC)C1[C@](COC)(CN4CC)[C@H](O)C[C@@H]3OC` (stereo partly specified): the TGI in the experiment with DLD-1 colon, in the experiment on HCT-15 colon, in the experiment on SK-MEL-5 melanoma, in the experiment on SN12C renal, with SK-OV-3 ovarian and with NCI-H460 lung was above 100 µM throughout. Further, the TGI in the experiment on RPMI-8226 leukemia, in the experiment on SF-268 CNS, in the experiment on DMS 114 small cell lung, in the experiment with SK-MEL-28 melanoma, in the experiment on HOP-62 NSCLC and in the experiment on OVCAR-4 ovarian was above 100 µM throughout. Moreover, the TGI with UACC-62 melanoma, with OVCAR-8 ovarian, with SW-620 colon, with IGROV1 ovarian and with K-562 leukemia was above 100 µM each time.
As to `CCCCN1C(=O)NC(Cc2ccccc2)C1=O` (stereo unspecified), the TGI with DLD-1 colon, in the experiment on SN12C renal, in the experiment on NCI-H460 lung, in the experiment on SNB-75 CNS, with SF-268 CNS and in the experiment on DMS 114 small cell lung was above 100 µM in each case. Further, the TGI in the experiment on NCI-H522 lung, in the experiment on SK-MEL-28 melanoma, in the experiment with HOP-62 NSCLC, in the experiment on SF-295 CNS, with OVCAR-8 ovarian and in the experiment with SW-620 colon was above 100 µM each time.
Regarding `COc1ccc(N2C(=O)C3c4[nH]c5cccc(C)c5c4C4CCC(C(C)(C)C)CC4C3C2=O)cc1` (stereo unspecified), the TGI with HCT-15 colon, in the experiment with SK-MEL-5 melanoma, with SN12C renal, with SK-OV-3 ovarian, in the experiment on NCI-H460 lung and with RPMI-8226 leukemia was above 10 µM each time. Besides, the TGI in the experiment with SNB-75 CNS, in the experiment with SF-268 CNS, in the experiment with NCI-H522 lung, with SK-MEL-28 melanoma, with HOP-62 NSCLC and in the experiment on SF-295 CNS was above 10 µM throughout. The TGI with OVCAR-4 ovarian was 2.26 µM; in the experiment with UACC-62 melanoma, above 10 µM; in the experiment on OVCAR-8 ovarian, above 10 µM; in the experiment with SW-620 colon, above 10 µM; in the experiment on IGROV1 ovarian, above 10 µM; with K-562 leukemia, above 10 µM.
In the case of `Cc1ccc(-c2csc(=Nc3c(C)n(C)n(-c4ccccc4)c3=O)n2CCO)cc1`, the TGI in the experiment on HCT-15 colon, with SN12C renal, with SK-OV-3 ovarian, in the experiment on NCI-H460 lung, in the experiment on RPMI-8226 leukemia and with SNB-75 CNS was above 100 µM in each case. For the same molecule, the TGI with SF-268 CNS, in the experiment with SK-MEL-28 melanoma, in the experiment on HOP-62 NSCLC, with SF-295 CNS, in the experiment on OVCAR-4 ovarian and in the experiment with UACC-62 melanoma was above 100 µM each time. Also, the TGI in the experiment on OVCAR-8 ovarian and in the experiment with K-562 leukemia was above 100 µM in each case.

The values above are taken from PubChem BioAssay (NCI).
